Data on five compounds can be found in patent US20080051447A1, “Treatment Of Hypercholesterolemia, Hypertriglyceridemia And Cardiovascular-Related Conditions Using Phospholipase-A2 Inhibitors” (priority 2005, published 2008).

Data set [1] has as its target human pancreatic secreted PLA2 (hps PLA2) (Homo sapiens, UniProt P04054). The following applies: reported activity data; cited from earlier work.
Data set [2] concerns the target porcine pancreatic secreted PLA2 (pps PLA2) (Sus scrofa, UniProt P00592). The following applies: reported activity data; cited from earlier work.
In data set [3] the test system is Caco-2 cells. Kind of data set: Caco-2 permeability study (Example 6B). Type of data set: in vitro ADME, human. The procedure: The culture medium was refreshed every 48 hours.
A general note: Caco-2 monolayers are a common model of the intestinal barrier.

A short description of data set [4]: Pharmokinetic study, bioavailability (Example 6C). The note with it: ORAL 30 mg/kg. The format is in vivo, mice. An excerpt: This example characterized ILY-4001 [2-(3-(2-amino-2-oxoacetyl)-1-(biphenyl-2-ylmethyl)-2-methyl-1H-indol-4-yloxy)acetic acid], alternatively referred to herein as methyl indoxam, with respect to activity, as determined by IC50 assay (Example 6A), with respect to cell absorbtion, as determined by in-vitro Caco-2 assay (Example 6B) and with respect to bioavailability, as determined using in-vivo mice studies (Example 6C).
This example evaluated the bioavailability of ILY-4001 [2-(3-(2-amino-2-oxoacetyl)-1-(biphenyl-2-ylmethyl)-2-methyl-1H-indol-4-yloxy)acetic acid], alternatively referred to herein as methyl indoxam. […]
Bioavailability was calculated as a ratio of AUC-oral/AUC-intravenous (IV). To determine this ratio, a first set of subject animals were given a measured intravenous (IV) dose of ILY-4001, followed by a determination of ILY-4001 levels in the blood at various time points after administration (e.g., 5 minutes through 24 hours). Another second set of animals was similarly dosed using oral administration, with blood levels of ILY-4001 determined at various time points after administration (e.g., 30 minutes through 24 hours). The level of ILY-4001 in systemic circulation were determined by generally accepted methods (for example as described in Evans, G., A Handbook of Bioanalysis and Drug Metabolism. Boca Raton, CRC Press (2004)). […]

Data set [5] deals with wild-type C57BL/6 mice on high fat/high sucrose diet. Kind of data set: Body weight gain in mice on high fat/high sucrose diabetogenic diet (Example 5A). The format is in vivo. The following applies: for body weight gain compared to the wild-type control group: week 4 and week 10. The procedure: (§1) ILY-4001 (FIG. 2) was evaluated as a PLA2 IB inhibitor in a set of experiments using wild-type mice and genetically deficient PLA2 (−/−) mice (also referred to herein as PLA2 knock-out (KO) mice). In these experiments, wild-type and PLA2 (−/−) mice were maintained on a high fat/high sucrose diet, details of which are described below.
(§2) Briefly, four groups were set up, each having six mice. Three of the groups included six wild-type PLA2 (+/+) mice in each group (eighteen mice total), and one of the groups included six genetically deficient PLA2 (−/−) mice. One of the wild-type groups was used as a wild-type control group, and was not treated with ILY-4001. The other two wild-type groups were treated with ILY-4001—one group at a lower dose (indicated as “L” in Table 1) of 25 mg/kg/day, and the other at a higher dose (indicated as “H” in Table 1) of 90 mg/kg/day. The group comprising the PLA2 (−/−) mice was used as a positive control group.
(§3) The experimental protocol used in this study was as follows. The four groups of mice, including wild type and isogenic PLA2 (−/−) C57BL/J mice were acclimated for three days on a low fat/low carbohydrate diet. After the three day acclimation phase, the animals were fasted overnight and serum samples taken to establish baseline plasma cholesterol, triglyceride, and glucose levels, along with baseline body weight. The mice in each of the treatment groups were then fed a high fat/high sucrose diabetogenic diet (Research Diets D12331). 1000 g of the high fat/high sucrose D12331 diet was composed of casein (228 g), DL-methionine (2 g), maltodextrin 10 (170 g), sucrose (175 g), soybean oil (25 g), hydrogenated coconut oil (333.5 g), mineral mix S10001 (40 g), sodium bicarbonate (10.5 g), potassium citrate (4 g), vitamin mix V10001 (10 g), and choline bitartrate (2 g). This diet was supplemented with ILY-4001 treatments such that the average daily dose of the compound ingested by a 25 g mouse was: 0 mg/kg/day (wild-type control group and PLA2 (−/−) control group); 25 mg/kg/day (low-dose wild-type treatment group), or 90 mg/kg/day (high-dose wild-type treatment group). The animals were maintained on the high fat/high sucrose diet, with the designated ILY-4001 supplementation, for a period of ten weeks.
Body weight measurements were taken for all animals in all treatment and control groups at the beginning of the treatment period and at 4 weeks and 10 weeks after initiation of the study. (See Example 5A). Blood draws were also taken at the beginning of the treatment period (baseline) and at 4 weeks and 10 weeks after initiation of the study, in order to determine fasting glucose (See Example 5B). Cholesterol and triglyceride levels were determined from blood draws taken at the beginning of the treatement (baseline) and at ten weeks. (See Example 5C).
In the study generally described above in Example 5, body weight measurements were taken for all animals in all treatment and control groups at the beginning of the treatment period and at 4 weeks and 10 weeks after initiation of the study.

The test system is the same in data set [6]. Kind of data set: Fasting serum glucose in mice on high fat/high sucrose diabetogenic diet (Example 5B). The format is in vivo. The following applies: low dose 25 mg/kg/day (group 2). The procedure: as §1, §2
The experimental protocol used in this study was as follows. […]
Body weight measurements were taken for all animals in all treatment and control groups at the beginning of the treatment period and at 4 weeks and 10 weeks after initiation of the study. […] Cholesterol and triglyceride levels were determined from blood draws taken at the beginning of the treatement (baseline) and at ten weeks. […]

The test system is the same in data set [7]. Briefly: Serum cholesterol and triglycerides in mice on high fat/high sucrose diabetogenic diet (Example 5C). Type of data set: in vivo. The note with it: 10 weeks. The procedure:
as §1, §2, §3
Body weight measurements were taken for all animals in all treatment and control groups at the beginning of the treatment period and at 4 weeks and 10 weeks after initiation of the study. (See Example 5A). Blood draws were also taken at the beginning of the treatment period (baseline) and at 4 weeks and 10 weeks after initiation of the study, in order to determine fasting glucose (See Example 5B). Cholesterol and triglyceride levels were determined from blood draws taken at the beginning of the treatement (baseline) and at ten weeks. […]

Data set [8] is described as follows: Stability at low pH. Type of data set: physicochemical. The following applies: predicted to survive passage through the stomach.
For data set [9], the target named is human PLA2 IB enzyme (Homo sapiens, UniProt P04054). The note with it: pyrene substrate release from vesicles (Singer, Ghomashchi et al. 2002); read-out: IC50 versus the human PLA2 IB enzyme; cited from earlier work.
The target in data set [10] is mouse PLA2 IB enzyme (Mus musculus, UniProt Q9Z0Y2). The following applies: pyrene substrate release from vesicles (Singer, Ghomashchi et al. 2002); read-out: IC50 versus the mouse PLA2 IB enzyme; cited from earlier work.
Setting [11] is: high dose 90 mg/kg/day (group 3).
The mark [12] stands for this setting: low dose 25 mg/kg/day (group 2).

human pancreatic secreted PLA2 (hps PLA2), sequence (P04054 23-148): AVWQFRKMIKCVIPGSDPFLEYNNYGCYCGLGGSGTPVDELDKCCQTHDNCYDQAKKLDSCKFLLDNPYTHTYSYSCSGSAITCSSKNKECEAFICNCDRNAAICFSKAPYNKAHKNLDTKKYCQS
mouse PLA2 IB enzyme, sequence (Q9Z0Y2 23-146): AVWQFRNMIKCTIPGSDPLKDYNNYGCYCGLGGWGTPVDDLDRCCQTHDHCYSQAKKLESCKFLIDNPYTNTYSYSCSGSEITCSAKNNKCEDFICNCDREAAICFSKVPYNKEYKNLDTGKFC
porcine pancreatic secreted PLA2 (pps PLA2), sequence (P00592 23-146): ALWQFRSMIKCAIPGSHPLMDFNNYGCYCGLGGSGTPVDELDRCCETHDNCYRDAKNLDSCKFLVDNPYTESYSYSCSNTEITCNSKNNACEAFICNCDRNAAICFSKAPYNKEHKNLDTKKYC
human PLA2 IB enzyme, sequence (P04054 23-148): as the sequence (P04054 23-148) above

Take `Cc1c(CC(=O)NN)c2cc(OCCCC(=O)O)ccc2n1Cc1ccccc1`: the “IC50 hps PLA2” value in data set [1] was “no activity”. Further, the “IC50 pps PLA2” value in data set [2] is “no activity”.

The term IC50 denotes the concentration at which inhibition is half-maximal. Regarding `Cc1c(C(=O)C(N)=O)c2c(/C=C/C(=O)O)cccc2n1Cc1ccccc1`, the half-inhibitory concentration (IC50) in data set [1] was over 100000 nM.

Turning to `Cc1c(C(=O)C(N)=O)c2c(CCC(=O)O)cccc2n1Cc1ccccc1`, in data set [1], the half-maximal inhibitory concentration (IC50) is over 100000 nM.

For `Cc1c(C(=O)C(N)=O)c2c(OCC(=O)O)cccc2n1Cc1ccccc1-c1ccccc1` [ILY-4001, 2-(3-(2-amino-2-oxoacetyl)-1-(biphenyl-2-ylmethyl)-2-methyl-1H-indol-4-yloxy)acetic acid], the apparent permeability entry in data set [3] (Caco-2 monolayers, apical to basolateral, 50 ug/ml) is “around 1.66×10^−7 cm/s”. For the same compound, the “absorbtion from the GI lumen” value in [3] (based on Caco-2 assays and pharmokinetic studies) is “relatively low absorbtion”. Besides, in [4], the “level of non-absorption from the GI tract into systemic circulation” value is about 72%. Also, the “body weight gain relative to PLA2 (−/−) mice” value in data set [5] (25 mg/kg/d (low-dose) in diet, ten weeks) is “modulated to an extent comparable to that achieved in the PLA2 (−/−) mice”; in [5] (25 mg/kg/d in diet, four weeks), “modulated to an extent approaching that achieved in the PLA2 (−/−) mice”; in data set [5] (90 mg/kg/d in diet, four weeks) it was “modulated to an extent approaching that achieved in the PLA2 (−/−) mice”. The “body weight gain compared to the wild-type control group” value in [5] (25 mg/kg/d in diet) and in data set [5] (90 mg/kg/d in diet) was “significantly reduced body weight gains” each time. Further, the values for the fasting glucose levels result in [6] (week four) and in data set [6] (week ten) were “moderately beneficial effect” and “a beneficial effect was not observed”, respectively. For the same compound, the “plasma levels of cholesterol” value in data set [7] (setting [11]) and in [7] (setting [12]) was “substantially reduced” in each case. Further, the “plasma levels of triglycerides” value in data set [7] (setting [11]) and in [7] (setting [12]) was “substantially reduced” in each case. Besides, the “stability at low pH” value in [8] is on record as “stable at low pH”. Further, the IC50 is about 200 nM in data set [9] and about 150 nM in data set [10].

Take Lucifer Yellow [reference compound]: the “apparent permeability (paracellular transport control)” value in data set [3] (Caco-2) is listed as “around 2.82×10^−7+/−0.37×10^−7 cm/s”.
